Biological target: T1, human neurotensin-2 (NT-2) receptor (Homo sapiens, UniProt O95665)
T1 construct: expressed in transfected cells
Experiment: NT2 antagonism assay (intracellular calcium release in CHO or HEK 293 cells recombinantly expressing the receptor)
Assay type: cell-based
Conditions: functional in vitro assay; block of agonist (e.g. SR48692)-dependent intracellular calcium release; recombinant human NT-2 receptor
From the text: The activation of the human neurotensin-2 (NT-2) receptor by an agonist, for example SR48692, 2-{[1-(7-chloroquinolin-4-yl)-5-(2,6-dimethoxyphenyl)pyrazol-3-yl]carbonylamino}tricyclo[3.3.3.1 ^3,7]decane-2-carboxylic acid, leads, via stimulation of phospholipase C, to the release of calcium ions from intracellular stores. Antagonists block the activation of the receptor by the agonist and therefore also the agonist-dependent stimulation of phospholipase C and the intracellular calcium release initiated thereby.
A functional in vitro assay may be carried out with stable cell lines, for example CHO or HEK 293, which express the human NT-2 receptor recombinantly. The activity of the receptor is determined via measurement of the intracellular calcium release coupled thereto (in microtiter plates having 96, 384 and 1536 wells/plate). The concentration-dependent action of the NT-2 ligands tested on the receptor activity may be reported as IC50.

T1 sequence (O95665 whole entry): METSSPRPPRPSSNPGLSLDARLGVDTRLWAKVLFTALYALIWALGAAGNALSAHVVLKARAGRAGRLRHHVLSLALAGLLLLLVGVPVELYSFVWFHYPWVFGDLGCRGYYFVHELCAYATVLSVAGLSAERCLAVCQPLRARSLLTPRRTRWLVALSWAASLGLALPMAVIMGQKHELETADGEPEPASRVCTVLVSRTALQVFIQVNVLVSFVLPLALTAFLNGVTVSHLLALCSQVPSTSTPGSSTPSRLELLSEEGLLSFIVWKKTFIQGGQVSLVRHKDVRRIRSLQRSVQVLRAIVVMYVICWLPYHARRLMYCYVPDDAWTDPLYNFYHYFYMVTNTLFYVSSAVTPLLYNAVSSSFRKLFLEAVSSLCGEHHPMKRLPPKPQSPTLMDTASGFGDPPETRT

IC50: < 200 nM
Compound: NC(=O)COc1ccccc1C1C(C(=O)NCc2cccnc2)c2ccccc2C(=O)N1CCC1=CCCCC1 (single isomer, unassigned) [enantiomer B of example 1, 3,4-trans-3-[2-(2-Carbamoylmethoxy)phenyl]-2-[2-(1-cyclohexen-1-yl)ethyl]-1-oxo-N-(3-pyridinylmethyl)-1,2,3,4-tetrahydro-4-isoquinolinecarboxamide]

Source: US20050049240A1, “Tetrahydroisochinolines, their production and the use thereof as analgesics” (Bayer HealthCare AG, priority 2001, published 2005)
